Results: ChEMBL document CHEMBL1201862, “PubChem BioAssay data set” (2004)
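The compound was tested at five concentrations on cells cultured in 96-well plates, with a 48-hour exposure period. Abbreviation: GI50, concentration required for 50% inhibition of growth.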 Activity calls are given as the source filed them. Cut-off read from the data, not from the text of the source: active = GI50 up to about 1.1 µM and inactive = higher.

How the values were obtained:
Assay in all cases: NCI tumour cell line growth inhibition, 48 h
A549 = system: A549
HCC 2998 = system: HCC 2998
CCRF-CEM = system: CCRF-CEM
NCI-H460 = system: NCI-H460
M14 = system: M14
OVCAR-8 = system: OVCAR-8
MOLT-4 = system: MOLT-4
ACHN = system: ACHN
UO-31 = system: UO-31
A498 = system: A498
EKVX = system: EKVX
XF498 = system: XF498
SNB-78 = system: SNB-78
NCI-H522 = system: NCI-H522
SR = system: SR
M19-MEL = system: M19-MEL
SN12C = system: SN12C
COLO 205 = system: COLO 205
OVCAR-5 = system: OVCAR-5
HCT-15 = system: HCT-15
SK-MEL-28 = system: SK-MEL-28
KM12 = system: KM12
TK-10 = system: TK-10
786-0 = system: 786-0
SF-268 = system: SF-268
DLD-1 = system: DLD-1
HOP-92 = system: HOP-92
SK-MEL-2 = system: SK-MEL-2
SNB-75 = system: SNB-75
OVCAR-4 = system: OVCAR-4
HOP-18 = system: HOP-18
RPMI-8226 = system: RPMI-8226
HL-60 = system: HL-60
IGROV-1 = system: IGROV-1
LOX IMVI = system: LOX IMVI
Malme-3M = system: Malme-3M
SW-620 = system: SW-620
NCI-H23 = system: NCI-H23
UACC-257 = system: UACC-257
K562 = system: K562
UACC-62 = system: UACC-62
SK-OV-3 = system: SK-OV-3
HCT-116 = system: HCT-116
SF-539 = system: SF-539
NCI-H226 = system: NCI-H226
SF-295 = system: SF-295
HT-29 = system: HT-29
U-251 = system: U-251
DMS-114 = system: DMS-114
CAKI-1 = system: CAKI-1
SK-MEL-5 = system: SK-MEL-5
OVCAR-3 = system: OVCAR-3
KM-20L2 = system: KM-20L2
DMS-273 = system: DMS-273
SNB-19 = system: SNB-19
RXF 393 = system: RXF 393
LXFL 529 = system: LXFL 529
HOP-62 = system: HOP-62

Measured: GI50

NNC(=S)N/N=C(/C(=O)Nc1ccc([N+](=O)[O-])cc1)c1nc2ccc([N+](=O)[O-])cc2nc1O
inactive: A549 > 100 µM | HCC 2998 > 100 µM | CCRF-CEM > 100 µM | NCI-H460 > 100 µM | M14 > 100 µM | OVCAR-8 > 100 µM | MOLT-4 > 100 µM | ACHN 95.3 µM | UO-31 > 100 µM | A498 > 100 µM | EKVX > 100 µM | XF498 > 100 µM | SNB-78 > 100 µM | NCI-H522 36.5 µM | SR > 100 µM | M19-MEL > 100 µM | SN12C > 100 µM | COLO 205 > 100 µM | OVCAR-5 > 100 µM | SK-MEL-28 > 100 µM | KM12 > 100 µM | TK-10 > 100 µM | 786-0 > 100 µM | SF-268 > 100 µM | DLD-1 > 100 µM | HOP-92 > 100 µM | SK-MEL-2 > 100 µM | SNB-75 > 100 µM | OVCAR-4 > 100 µM | HOP-18 > 100 µM | RPMI-8226 > 100 µM | HL-60 52.8 µM | IGROV-1 > 100 µM | LOX IMVI > 100 µM | Malme-3M > 100 µM | SW-620 > 100 µM | NCI-H23 > 100 µM | UACC-257 > 100 µM | K562 > 100 µM | UACC-62 > 100 µM | SK-OV-3 > 100 µM | HCT-116 > 100 µM | SF-539 > 100 µM | NCI-H226 > 100 µM | SF-295 > 100 µM | HT-29 > 100 µM | U-251 > 100 µM | DMS-114 77.6 µM | CAKI-1 > 100 µM | SK-MEL-5 45.5 µM
74.6 µM: HCT-15

C[N+](C)(Cc1ccc(NC(=O)CCCC(=O)ON2C(=O)CCC2=O)cc1)c1ccccc1
active: OVCAR-3 < 0.01 µM | A549 < 0.01 µM | KM-20L2 < 0.01 µM | DMS-273 < 0.01 µM | HCC 2998 < 0.01 µM | CCRF-CEM < 0.01 µM | NCI-H460 > 1 µM | M14 < 0.01 µM | OVCAR-8 < 0.01 µM | MOLT-4 < 0.01 µM | ACHN < 0.01 µM | SNB-19 < 0.01 µM | UO-31 < 0.01 µM | A498 < 0.01 µM | EKVX < 0.01 µM | XF498 > 1 µM | NCI-H522 < 0.01 µM | SR < 0.01 µM | RXF 393 > 1 µM | LXFL 529 < 0.01 µM | M19-MEL < 0.01 µM | HOP-62 < 0.01 µM | SN12C < 0.01 µM | COLO 205 < 0.01 µM | OVCAR-5 < 0.01 µM | SK-MEL-28 < 0.01 µM | KM12 < 0.01 µM | TK-10 < 0.01 µM | 786-0 < 0.01 µM | SF-268 < 0.01 µM | DLD-1 < 0.01 µM | HOP-92 < 0.01 µM | SK-MEL-2 0.0234 µM | SNB-75 < 0.01 µM | OVCAR-4 < 0.01 µM | HOP-18 < 0.01 µM | RPMI-8226 < 0.01 µM | HL-60 < 0.01 µM | IGROV-1 < 0.01 µM | LOX IMVI < 0.01 µM | Malme-3M < 0.01 µM | SW-620 < 0.01 µM | NCI-H23 < 0.01 µM | UACC-257 < 0.01 µM | K562 < 0.01 µM | UACC-62 < 0.01 µM | SK-OV-3 < 0.01 µM | HCT-116 < 0.01 µM | SF-539 < 0.01 µM | NCI-H226 < 0.01 µM | SF-295 < 0.01 µM | HT-29 < 0.01 µM | U-251 < 0.01 µM | DMS-114 > 1 µM | CAKI-1 < 0.01 µM | SK-MEL-5 < 0.01 µM
> 1 µM: HCT-15
